Reference: patent US4703050A, “Methods of inducing neuron protective activity” (Roussel Uclaf, priority 1985, dated 1987)

How the values were obtained:
Format in all cases: in vivo
[1] = Hypobaric Anoxemia Test; conditions: male mice, 15 min before 190 mm Hg, vs control animals
Method: Male mice weighing 20-22 g were used having eaten nothing for 5 hours and they were divided into groups of 10 animals. The product to be tested was administered to the animals subcutaneously. […] The increase in the survival time, expressed as a percentage was calculated for the treated animals in comparison with control animals submitted to the same conditions.

[2] = Acute Toxicity Study (LD0); conditions: mice, oral administration
Description: The result obtained was LD0 in mg/kg =200.

[3] = system: enolase γγ; test: Enolase Test (kainic acid-induced neuron lesion); conditions: mice, 1 mg/kg intraperitoneally
Method: Injured cerebral cells release enolase γγ which is a specific indicator of neuron lesion. In this test, the lesions were induced in the mice by sub-cutaneous injection of 35 mg/kg of kainic acid.

[4] = Asphysic Anoxemia Test (electroencephalogram survival); conditions: mice, curare, 2 mg/kg, respiratory assistance stopped; for increase in the time necessary for the electroencephalogram to disappear: vs control animals
Method: Curare was administered to mice which were placed under assisted respiration and the products to be tested were administered at a dose of 2 mg/kg, and the respiratory assistance was stopped.

SMILES | % Increase in the survival time ([1]; 1 mg/kg subcutaneously) [%] | % Increase in the survival time ([1]; 10 mg/kg subcutaneously) [%] | LD0 (maximum dose which did not cause mortality in 8 days) [2] [mg/kg] | decrease in the serous concentration of enolase ([3]; 1 hour before 35 mg/kg s.c. kainic acid) [%] | protection of cerebral cells in the affected area ([3]; 1 hour before kainic acid) | electro-encephalographic survival [4] | increase in the time necessary for the electroencephalogram to disappear [4] [%]
CSC[C@@H]1C[C@@H]2c3cccc4[nH]cc(c34)C[C@H]2N(C)C1 [Product A, 6-methyl-8β-(methylthiomethyl)-ergoline] | 12 | 57 | 200 | 29 | protected the cerebral cells in the affected area | prolong the electro-encephalographic survival | 10
CSC[C@@H]1C=C2c3cccc4[nH]cc(c34)C[C@H]2N(C)C1 [Product B, 6-methyl-8β-methylthiomethyl-9,10-didehydroergoline] |  |  |  |  |  | prolong the electro-encephalographic survival | 11
